Assay: Study 202: treatment-emergent laboratory abnormalities (DAIDS grades; CPK, ALT, AST, bilirubin)
Type: in vivo
Details: for ALT, worst Grade 1, n subjects / ALT, worst Grade 2, n subjects / ALT, worst Grade 3, n subjects / ALT, worst Grade 4, n subjects / AST, worst Grade 1, n subjects / AST, worst Grade 2, n subjects / AST, worst Grade 3, n subjects / AST, worst Grade 4, n subjects / Alanine aminotransferase (ALT) abnormality, any grade, n subjects / Any Grade 3 or Grade 4 laboratory abnormality, n subjects / Aspartate aminotransferase (AST) abnormality, any grade, n subjects / Aspartate aminotransferase (AST) increased (Grade 3 or 4), n subjects / Bilirubin abnormality, any grade, n subjects / Bilirubin, worst Grade 1, n subjects / Bilirubin, worst Grade 2, n subjects / Bilirubin, worst Grade 3, n subjects / Bilirubin, worst Grade 4, n subjects / CPK increased, worst Grade 3, n subjects / CPK increased, worst Grade 4, n subjects / Creatine phosphokinase (CPK) increased (Grade 3 or 4), n subjects / Fibrinogen decreased (Grade 3 or 4), n subjects / Fibrinogen decreased, worst Grade 3, n subjects / Fibrinogen decreased, worst Grade 4, n subjects / Hemoglobin decreased (Grade 3 or 4), n subjects / Hemoglobin decreased, worst Grade 3, n subjects / Hemoglobin decreased, worst Grade 4, n subjects / Neutrophils decreased (Grade 3 or 4), n subjects / Neutrophils decreased, worst Grade 3, n subjects / Neutrophils decreased, worst Grade 4, n subjects / Phosphate decreased (Grade 3 or 4), n subjects / Phosphate decreased, worst Grade 3, n subjects / Phosphate decreased, worst Grade 4, n subjects / Prothrombin time/INR increased, worst Grade 3, n subjects / Prothrombin time/INR increased, worst Grade 4, n subjects: through Week 48
Text: The number of subjects with graded treatment-emergent laboratory abnormalities in selected liver parameters of interest is shown in Table 34. No Grade 4 ALT or AST elevations were observed. Except for one Grade 3 AST elevation, all ALT and AST elevations were Grade 1 or Grade 2. […] All abnormalities in bilirubin were Grade 1 or Grade 2. […]

[1] = All CVC (N = 115), EFV (N = 28)

## CCCCOCCOc1ccc(-c2ccc3c(c2)/C=C(/C(=O)Nc2ccc([S@@+]([O-])Cc4cncn4CCC)cc2)CCCN3CC(C)C)cc1 [CVC, (S)-8-[4-(2-Butoxyethoxy)phenyl]-1-isobutyl-N-(4-{[(1-propyl-1H-imidazol-5-yl)methyl]sulfinyl}phenyl)-1,2,3,4-tetrahydro-1-benzazocine-5-carboxamide]
[1]
  Any graded (Grade 1-4) treatment-emergent laboratory abnormality, n subjects: 106
  Laboratory abnormality, worst Grade 1, n subjects: 37
  Laboratory abnormality, worst Grade 2, n subjects: 50
  Laboratory abnormality, worst Grade 3 (Any Grade 3 abnormality), n subjects: 13
  Laboratory abnormality, worst Grade 4 (Any Grade 4 abnormality), n subjects: 6
  ALT, worst Grade 1, n subjects: 10
  ALT, worst Grade 2, n subjects: 5
  ALT, worst Grade 3, n subjects: 0
  ALT, worst Grade 4, n subjects: 0
  AST, worst Grade 1, n subjects: 14
  AST, worst Grade 2, n subjects: 6
  AST, worst Grade 3, n subjects: 1
  AST, worst Grade 4, n subjects: 0
  Alanine aminotransferase (ALT) abnormality, any grade, n subjects: 15
  Any Grade 3 or Grade 4 laboratory abnormality, n subjects: 19
  Aspartate aminotransferase (AST) abnormality, any grade, n subjects: 21
  Aspartate aminotransferase (AST) increased (Grade 3 or 4), n subjects: 1
  Bilirubin abnormality, any grade, n subjects: 7
  Bilirubin, worst Grade 1, n subjects: 3
  Bilirubin, worst Grade 2, n subjects: 4
  Bilirubin, worst Grade 3, n subjects: 0
  Bilirubin, worst Grade 4, n subjects: 0
  CPK increased, worst Grade 3, n subjects: 8
  CPK increased, worst Grade 4, n subjects: 4
  Creatine phosphokinase (CPK) increased (Grade 3 or 4), n subjects: 12
  Fibrinogen decreased (Grade 3 or 4), n subjects: 2
  Fibrinogen decreased, worst Grade 3, n subjects: 2
  Fibrinogen decreased, worst Grade 4, n subjects: 0
  Hemoglobin decreased (Grade 3 or 4), n subjects: 1
  Hemoglobin decreased, worst Grade 3, n subjects: 0
  Hemoglobin decreased, worst Grade 4, n subjects: 1
  Neutrophils decreased (Grade 3 or 4), n subjects: 2
  Neutrophils decreased, worst Grade 3, n subjects: 2
  Neutrophils decreased, worst Grade 4, n subjects: 0
  Phosphate decreased (Grade 3 or 4), n subjects: 4
  Phosphate decreased, worst Grade 3, n subjects: 4
  Phosphate decreased, worst Grade 4, n subjects: 0
  Prothrombin time/INR increased, worst Grade 3, n subjects: 0
  Prothrombin time/INR increased, worst Grade 4, n subjects: 1
CVC 100 mg
  Subjects with Grade 3 or 4 increases in CPK: 3 subjects
CVC 100 mg (N = 58)
  Any graded (Grade 1-4) treatment-emergent laboratory abnormality, n subjects: 51 (88%)
  Laboratory abnormality, worst Grade 1, n subjects: 21 (36%)
  Laboratory abnormality, worst Grade 2, n subjects: 23 (40%)
  ALT, worst Grade 1, n subjects: 4
  ALT, worst Grade 2, n subjects: 3
  ALT, worst Grade 3, n subjects: 0
  ALT, worst Grade 4, n subjects: 0
  AST, worst Grade 1, n subjects: 8
  AST, worst Grade 2, n subjects: 2
  AST, worst Grade 3, n subjects: 1
  AST, worst Grade 4, n subjects: 0
  Alanine aminotransferase (ALT) abnormality, any grade, n subjects: 7
  Any Grade 3 or Grade 4 laboratory abnormality, n subjects: 7
  Aspartate aminotransferase (AST) abnormality, any grade, n subjects: 11
  Aspartate aminotransferase (AST) increased (Grade 3 or 4), n subjects: 1
  Bilirubin abnormality, any grade, n subjects: 4
  Bilirubin, worst Grade 1, n subjects: 1
  Bilirubin, worst Grade 2, n subjects: 3
  Bilirubin, worst Grade 3, n subjects: 0
  Bilirubin, worst Grade 4, n subjects: 0
  CPK increased, worst Grade 3, n subjects: 2
  CPK increased, worst Grade 4, n subjects: 1
  Creatine phosphokinase (CPK) increased (Grade 3 or 4), n subjects: 3
  Fibrinogen decreased (Grade 3 or 4), n subjects: 0
  Fibrinogen decreased, worst Grade 3, n subjects: 0
  Fibrinogen decreased, worst Grade 4, n subjects: 0
  Hemoglobin decreased (Grade 3 or 4), n subjects: 1
  Hemoglobin decreased, worst Grade 3, n subjects: 0
  Hemoglobin decreased, worst Grade 4, n subjects: 1
  Neutrophils decreased (Grade 3 or 4), n subjects: 2
  Neutrophils decreased, worst Grade 3, n subjects: 2
  Neutrophils decreased, worst Grade 4, n subjects: 0
  Phosphate decreased (Grade 3 or 4), n subjects: 2
  Phosphate decreased, worst Grade 3, n subjects: 2
  Phosphate decreased, worst Grade 4, n subjects: 0
  Prothrombin time/INR increased, worst Grade 3, n subjects: 0
  Prothrombin time/INR increased, worst Grade 4, n subjects: 1
CVC 200 mg
  Subjects with Grade 3 or 4 increases in CPK: 9 subjects
CVC 200 mg (N = 57)
  Any graded (Grade 1-4) treatment-emergent laboratory abnormality, n subjects: 55
  Laboratory abnormality, worst Grade 1, n subjects: 16
  Laboratory abnormality, worst Grade 2, n subjects: 27
  Laboratory abnormality, worst Grade 3 (Any Grade 3 abnormality), n subjects: 9
  Laboratory abnormality, worst Grade 4 (Any Grade 4 abnormality), n subjects: 3
  ALT, worst Grade 1, n subjects: 6
  ALT, worst Grade 2, n subjects: 2
  ALT, worst Grade 3, n subjects: 0
  ALT, worst Grade 4, n subjects: 0
  AST, worst Grade 1, n subjects: 6
  AST, worst Grade 2, n subjects: 4
  AST, worst Grade 3, n subjects: 0
  AST, worst Grade 4, n subjects: 0
  Alanine aminotransferase (ALT) abnormality, any grade, n subjects: 8
  Any Grade 3 or Grade 4 laboratory abnormality, n subjects: 12
  Aspartate aminotransferase (AST) abnormality, any grade, n subjects: 10
  Aspartate aminotransferase (AST) increased (Grade 3 or 4), n subjects: 0
  Bilirubin abnormality, any grade, n subjects: 3
  Bilirubin, worst Grade 1, n subjects: 2
  Bilirubin, worst Grade 2, n subjects: 1

Source: patent US20180110754A1, “CENICRIVIROC FOR THE TREATMENT OF FIBROSIS” (Tobira Therapeutics, Inc., priority 2015, published 2018)
